Earlier results on one compound are cited in patent publication US20060177499A1, “Method for the manufacture of a pharmaceutical composition in the form of tablets containing a fibrate and tablets obtained according to the method” (priority 2003, published 2006).

For the data set the following is noted: long-term treatment; e.g. rhabdomyolysis, asthenia, increase of transaminases, hepatic toxicity.

As for `CC(C)OC(=O)C(C)(C)Oc1ccc(C(=O)c2ccc(Cl)cc2)cc1` [fenofibrate, Isopropyl 2-[4-(4-chlorobenzoyl)phenoxy]-2-methylpropionate], the adverse effects entry is on record as “not completely devoid of adverse effects”.
